From patent publication US12577341B2, “Copolymer derived from substituted benzopinacol and use of the same as polymerization initiator” (BASF COATINGS GMBH, priority 2020, dated 2026)

How the values were obtained:
[1] = Dissolution of the initiator in the monomer solution (appearance of the resulted mixture); type: physicochemical
Protocol: A monomer solution was prepared by mixing 90 g of trimethylolpropane triacrylate (TMPTA) and 2 g of butyl glycol under stirring. 4 g of the copolymeric initiator system was added into the monomer solution and stirred under room temperature for 1 hour.
A monomer solution was prepared by mixing 90 g of TMPTA, 2 g of butyl glycol, 0.24 g of chloroform and 1.76 g solvent naphtha 160/180 under stirring. 1 g of benzopinacol fine powder was added into the monomer solution and stirred under room temperature for 1 hour.
A monomer solution was prepared by mixing 90 g of TMPTA and 10 g of butyl glycol under stirring. 1 g of fine benzopinacol fine powder was added into the monomer solution and stirred under room temperature for 1 hour.
A monomer solution was prepared by mixing 90 g of TMPTA and 10 g of butyl glycol by stirring. 1 g of the compound of formula (I) was added into the monomer solution and stirred under room temperature for 1 hour.

[2] = cited from earlier work
[3] = 1 g in 90 g TMPTA and 10 g butyl glycol, stirred at room temperature for 1 hour

OC(c1ccccc1)(c1ccccc1)C(O)(c1ccccc1)c1ccccc1 [benzopinacol, 1,1,2,2-tetraphenyl-1,2-ethanediol]
Appearance of resulted mixture ([1]; 1 g fine powder in 90 g TMPTA, 2 g butyl glycol, 0.24 g chloroform and 1.76 g solvent naphtha 160/180, stirred at room temperature for 1 hour): transparent liquid with suspended fine particles | Appearance of resulted mixture [1, 3]: transparent liquid with suspended fine particles | Solubility in common organic solvents [2]: very poor solubility

C=CCOC(=O)c1ccc(C(O)(c2ccccc2)C(O)(c2ccccc2)c2ccc(C(=O)OCC=C)cc2)cc1 (stereo not shown) [compound of formula (I), allyloxycarbonyl substituted benzopinacol of formula (I)]
Appearance of resulted mixture [1, 3]: transparent liquid with suspended fine particles
